The source of these data is patent publication US10150793B2, “Antagonists of CB1 receptor” (INSERM (Institut National de la Santé et de la Recherche …, priority 2011, dated 2018).

One test relates to NMDA receptors. As to the kind of experiment: Whole cell currents induced by NMDA in nucleus accumbens principal neurons. In kind it is cell-based, mouse. The conditions noted are these: −30 mV. The protocol: NMDAR-mediated currents: Changes in holding currents induced by NMDA were measured in cells voltage clamped at −30 mV, to relieve NMDAR from the voltage-dependent magnesium block. AMPAR and GABA-A receptors were blocked with DNQX 20 μM and picrotoxine 50 μM, respectably.
To quantify NMDA receptors-mediated currents we used a different strategy. Because of its slow kinetics and voltage dependence, the isolation of NMDAR-mediated mEPSC is not as reliable as for AMPAR-mediated currents. Thus, we decided to record whole cell currents in response exogenously applied NMDA. In NAc PN voltage-clamped at −30 mV, bath perfusion of NMDA 25 μM for 1 minute induced an inward current of similar magnitude in control slices (115±15.5 pA) and in slices pre-treated with pregnenolone (100 nM: 107±9.6 pA; 1 μM: 108.9±12.5 pA; p=0.91) (FIG. 17 B).

A further test deals with T1, human CB1 receptor (Homo sapiens, UniProt P21554).
T1 construct: host or cells: CHO cells
T1 sequence (P21554 whole entry): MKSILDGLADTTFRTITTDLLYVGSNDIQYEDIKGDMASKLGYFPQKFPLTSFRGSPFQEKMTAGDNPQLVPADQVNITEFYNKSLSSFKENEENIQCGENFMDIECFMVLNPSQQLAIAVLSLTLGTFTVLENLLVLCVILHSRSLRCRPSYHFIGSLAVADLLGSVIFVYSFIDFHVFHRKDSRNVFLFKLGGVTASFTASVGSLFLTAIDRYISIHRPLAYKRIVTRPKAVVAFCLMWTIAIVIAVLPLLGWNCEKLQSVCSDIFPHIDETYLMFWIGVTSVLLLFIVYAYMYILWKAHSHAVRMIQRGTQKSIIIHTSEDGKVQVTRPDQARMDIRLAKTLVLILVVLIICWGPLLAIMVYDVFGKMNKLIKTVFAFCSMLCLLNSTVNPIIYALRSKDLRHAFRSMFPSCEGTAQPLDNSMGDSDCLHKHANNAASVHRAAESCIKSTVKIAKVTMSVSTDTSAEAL
In words: Radioligand binding of the CB1 agonist [3H]CP55,940 in CHO cells. The conditions noted are these: pregnenolone 10^-12 to 10^-4 M. As to the method: The binding assay for orthosteric binding of pregnenolone has been evaluated using Chinese hamster ovary (CHO) cells expressing the human CB1 receptor.
The CB1 binding of pregnenolone has been evaluated by the affinity of pregnenolone for the agonist site of the human CB1 cannabinoid receptor expressed in CHO cells, determined in a radioligand binding assay of the CB1 agonist [3H] CP 55940. The experiments were performed by CEREP France, using the standard procedures of this provider.

A further test addresses CB1 receptor (Mus musculus, UniProt P47746). In words: Food intake in 24 h-food deprived mice (fasting/refeeding). In kind it is in vivo, C57B1/6 mice. The arrangement: tissue Charles River Laboratories (France) (animals); host or cells: living mice, whole animal. The conditions noted are these: for effect on food intake in 24 h-food deprived mice: food intake over 1 h.

Chain of CB1 receptor (P47746 whole entry): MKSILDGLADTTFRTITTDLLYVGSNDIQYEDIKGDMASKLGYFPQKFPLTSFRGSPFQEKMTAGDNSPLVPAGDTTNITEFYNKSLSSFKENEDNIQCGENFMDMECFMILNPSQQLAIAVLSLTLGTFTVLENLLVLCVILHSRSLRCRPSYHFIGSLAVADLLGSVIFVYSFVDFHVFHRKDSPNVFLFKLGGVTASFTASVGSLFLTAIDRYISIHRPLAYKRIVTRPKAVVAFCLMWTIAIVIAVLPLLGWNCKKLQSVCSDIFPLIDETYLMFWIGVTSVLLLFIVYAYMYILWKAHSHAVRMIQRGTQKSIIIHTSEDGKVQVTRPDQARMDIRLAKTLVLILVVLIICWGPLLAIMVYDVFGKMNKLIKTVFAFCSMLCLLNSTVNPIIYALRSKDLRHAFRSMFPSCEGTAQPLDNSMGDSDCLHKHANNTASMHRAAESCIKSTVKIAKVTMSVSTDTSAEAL

On to `CC(=O)[C@H]1CC[C@H]2[C@@H]3CC=C4C[C@@H](O)CC[C@]4(C)[C@H]3CC[C@]12C` [Pregnenolone, 5-Pregnen-3β-ol-20-one], for which the “inward current induced by NMDA 25 μM” value in the test with NMDA receptors (slices pre-treated with 100 nM) was determined as 107±9.6 pA; in the test on NMDA receptors (slices pre-treated with 1 μM) it was 108.9±12.5 pA. In addition, the “orthosteric binding of the CB1 agonist [3H]CP55,940” value on human CB1 receptor is listed as “did not modify the specific binding”; on human CB1 receptor (listed as pregnenolone) it was “did not displace the orthosteric binding”. On CB1 receptor (food-deprived (food-restricted) mice, no THC), the “first statistically significant dose for decrease of food intake” value is listed as 6 mg/kg. Moreover, the “effect on food intake in 24 h-food deprived mice” value on CB1 receptor (no THC) is “dose-dependently decreased food intake”; on CB1 receptor (no THC, listed as pregnenolone) it was “dose dependently decreased food intake”. For the same molecule, at CB1 receptor (pregnenolone), the “effect on food intake over 24 hours in fasting/refeeding model” value was “no significant effect was seen over 24 hours”.
